Data set [1] can be described thus: Distribution coefficient (LogD), shake-flask method. The class given is physicochemical. The settings on record: n-octanol/PBS pH 7.4, n = 3, read-out: LogD7.4. How it is done:
The distribution coefficient (LogD) was determined using the shake-flask method. Briefly, 500 µCi (18.5 MBq) of [^18F]TAAR1-2203 was added to a presaturated mixture of PBS (1.3 mL, pH 7.4) and n-octanol (3 mL). The mixture was vortexed for 5 min, after which 500 µL aliquots (n = 3) were transferred into separate tubes and centrifuged at 3500–4000 rpm for 5 min. Following centrifugation, 50 µL of the n-octanol phase and 500 µL of the aqueous phase were carefully sampled and transferred into pre-weighed gamma counter tubes. After weighing, radioactivity in each phase was quantified using a Packard Cobra 5002/5003 gamma counter. The LogD value at pH 7.4 was calculated based on the measured weights and the radioactivity distribution between the organic and aqueous phases, as previously reported.

Data set [2] is described as follows: Serum stability, NHP serum. The class given is in vitro ADME, non-human primate. The settings on record: 60 min, 37 °C. As to the method: (§1) The stability of [^18F]TAAR1-2203 was assessed in mouse, rat, NHP, and human serum. Aliquots (400 µL) of serum were preincubated at 37 °C for 5 min, followed by the addition of [^18F]TAAR1-2203 (20 µL, 300 µCi/11.1 MBq). After 60 min, 200 µL of each sample was collected, quenched with ice-cold MeCN (200 µL), centrifuged at 10,000 g for 5 min, and analyzed by radio-HPLC (XBridge C18 column, 3.5 μm, 4.6 mm × 150 mm; CH3CN/H2O 35:65 with 0.1% TEA; flow rate 1.0 mL/min). Experiments in PBS served as negative controls, and benfluorex hydrochloride was used as a positive control.

Data set [3] is described as follows: Serum stability, human serum. To be noted: 60 min, 37 °C. The format is in vitro ADME. As to the method:
as §1

Data set [4] is described as follows: Microsomal stability, mouse liver microsomes. The class given is in vitro ADME. To be noted: after 60 min, 37 °C, printed as rodent microsomes. As to the method:
(§2) Microsomal stability of [^18F]TAAR1-2203 was evaluated using mouse, rat, NHP, and human liver microsomes. Potassium phosphate buffer (340 µL, 0.5 M, pH 7.4) was combined with NADPH regenerating solution (40 µL, 10 mM). Radiotracer solution (10 µL, 150 µCi, 5.5 MBq) was added, and the mixture was preincubated at 37 °C for 5 min. Liver microsomes (20 µL) were subsequently added. Incubations were carried out at 37 °C with gentle shaking. At 30 and 60 min, 200 µL aliquots were quenched with ice-cold MeCN (200 µL), centrifuged at 10,000 g for 5 min, and analyzed using an AR-2000 radio-TLC imaging scanner (Eckert & Ziegler).
A general note: Microsomes from liver hold many membrane-bound enzymes, among them those of drug oxidation.

A short description of data set [5]: Microsomal stability, rat liver microsomes. The format is in vitro ADME. The settings on record: after 60 min, 37 °C, printed as rodent microsomes. As to the method: as §2
A short description of data set [6]: Plasma protein binding of tracer, NHP plasma. The class given is in vitro ADME. To be noted: non-human primate, radiotracer, 10 min incubation, ultrafiltration, read-out: Free fraction in NHP plasma. How it is done:
(§3) Plasma protein binding of [^18F]TAAR1-2203 was determined in mouse, rat, NHP, and human plasma. Plasma samples (150 µL, n = 3) were preincubated at 37 °C for 5 min before addition of [^18F]TAAR1-2203 (10 µCi, 0.37 MBq). After 10 min of incubation, 300 µL of ice-cold PBS were added. Samples (300 µL) were then transferred onto Amicon® centrifugal filter units (10 kDa cut-off) and centrifuged at 2100 g for 15 min at 4 °C. Filtrates were washed with 300 µL PBS and centrifuged again. Radioactivity in the filtrate and protein-bound fractions was measured using a Packard Cobra 5002/5003 gamma counter.

The nature of data set [7]: Plasma protein binding of tracer, human plasma. The format is in vitro ADME. To be noted: radiotracer, 10 min incubation, ultrafiltration, read-out: Free fraction in human plasma. How it is done: as §3
The target in data set [8] is T1, TAAR1 (Mus musculus, UniProt Q923Y8).
T1 construct: peripheral organs that express endogenous TAAR1; tissue Charles River (wild-type); F. Hoffmann-La Roche Ltd. (TAAR1 knock-out and matched controls); host or cells: mouse pancreas, kidney, liver, brain
Kind of data set: In vitro autoradiography, TAAR1 knockout vs wild-type mouse tissue sections. The class given is binding. As to the method: In vitro autoradiography experiments with [^18F]TAAR1-2203 were conducted on mouse and rat pancreas, kidney and brain tissue sections, respectively. Tissue Sect. (20 μm) were thawed on ice for 10 min and preincubated in assay buffer (50 mM Tris, pH 7.4) for 10 min. Subsequently, sections were incubated with [^18F]TAAR1-2203 for 40 min at ambient temperature. For blocking studies, structurally distinct TAAR1 agonists, RO5333943 or RO5425754, were added in excess to the assay buffer at a final concentration of 10 µM. After incubation, sections were washed in assay buffer for 2 min on ice and dipped briefly in water (2 × 5 s), followed by drying and exposure to a phosphor imager plate for 60 min. Imager plates were scanned on an Amersham Typhoon analyzer system, and images were analyzed using ImageQuant TL 8.1, as previously reported.

A short description of data set [9]: Ex vivo radiometabolite analysis. The format is in vivo, CD1 mice. The settings on record: 30 min post-injection, n = 3. As to the method:
Female CD1 mice (20 weeks old, n = 3) were injected with [^18F]TAAR1-2203 (100 µCi, 3.7 MBq) and sacrificed 30 min post-injection. Brain, pancreas, and plasma samples were collected. Organs were homogenized in ice-cold acetonitrile (CH3CN). Plasma was obtained by centrifugation at 1400 rpm for 5 min at 4 °C, and proteins were precipitated with repeated CH3CN extraction until clear supernatants were obtained. Analytical samples were spiked with non-radioactive TAAR1-2203 and analyzed by radio-HPLC (XBridge C18 column; CH3CN/H₂O 35:65, with 0.1% TEA; flow rate 1.0 mL/min). Parent tracer fractions were determined as the percentage of intact [^18F]TAAR1-2203 relative to total detected radioactivity.

In data set [10] the target is T1, TAAR1. Nature of the data set: Dynamic PET imaging, baseline vs blockade. The format is in vivo, CD1 mice. How it is done: Dynamic PET imaging was performed for 60 min in female C57BL/6 mice, as well as in TAAR1 knock-out mice and respective controls, under 1–2% (v/v) isoflurane anaesthesia as previously reported. [^18F]TAAR1-2203 (1.5 MBq in 100 µL saline) was administered via tail vein injection. For blocking studies, TAAR1 agonist RO5425754 (4 mg/kg) was injected 5 min prior to radiotracer administration. Dynamic PET scans were acquired using a G8 PET/CT scanner (Sofie Biosciences, Culver, CA, USA) and analyzed with PMOD software (PMOD Technologies Ltd., Zurich, Switzerland). Radioactivity was decay-corrected and expressed as standardized uptake values (SUVs), normalized to body weight and injected dose.

[11] abbreviates: PET, blockade with RO5425754 4 mg/kg.

T1 sequence (Q923Y8 whole entry): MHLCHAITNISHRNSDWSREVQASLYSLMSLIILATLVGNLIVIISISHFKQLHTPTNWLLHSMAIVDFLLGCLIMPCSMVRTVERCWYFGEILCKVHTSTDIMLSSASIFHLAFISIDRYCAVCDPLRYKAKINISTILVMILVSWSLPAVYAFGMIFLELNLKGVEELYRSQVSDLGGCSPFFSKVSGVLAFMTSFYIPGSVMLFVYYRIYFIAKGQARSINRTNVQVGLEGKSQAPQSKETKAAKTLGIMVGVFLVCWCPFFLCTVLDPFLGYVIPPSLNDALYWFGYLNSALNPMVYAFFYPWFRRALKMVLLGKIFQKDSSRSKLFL

In the case of `Cc1c([18F])cccc1[C@H]1COC(N)=N1` [[^18F]TAAR1-2203], the logD in data set [1] amounted to 1.64 ± 0.01. For the same compound, the “Intact parent tracer in NHP serum” value in [2] is on record as more than 99%. Further, the “Intact parent tracer in human serum” value in data set [3] is more than 99%. The “Intact tracer in mouse liver microsomes” value in [4] is more than 98%. Further, the “Intact tracer in rat liver microsomes” value in data set [5] is more than 98%. The fraction unbound at 10 min, 2.47 MBq/mL in [6] was approximately 0.6. The fraction unbound at 10 min in data set [7] was approximately 0.6. Besides, the “Tracer signal in brain tissue, TAAR1 KO vs WT mice” value at TAAR1 [8] is “comparably low in both WT and KO animals”. On TAAR1 [8] (n = 6, p < 0.001), the “Change in tracer binding in kidney of TAAR1 KO vs WT mice” value is −50% and the “Change in tracer binding in pancreas of TAAR1 KO vs WT mice” value was −32%. Also, in [9], the “Parent tracer fraction in brain” value is recorded as “exceeded 80%”, the “Parent tracer fraction in pancreas” value is reported as “exceeded 80%” and the “Parent tracer fraction in plasma” value is reported as “exceeded 80%”. At TAAR1 [10] (PET imaging and in vitro autoradiography), the “Specific binding in the CNS” value is given as “no specific TAAR1 binding was observed”. Further, at TAAR1 [10] (setting [11]), the “Tracer uptake in kidney (AUC 0–60 min), blockade vs baseline” value is reported as “significant reduction” and the “Tracer uptake in pancreas (AUC 0–60 min), blockade vs baseline” value is “significant reduction”.

The values above are taken from paper PMC12920416, “Preclinical development of [^18F]TAAR1-2203 as a PET radioligand for imaging TAAR1 expression and receptor occupancy” (European Journal of Nuclear Medicine and Molecular Imaging, 2025).
